Here are results for seven compounds from ChEMBL document CHEMBL1148986, “Scalarane metabolites of the nudibranch Glossodoris rufomarginata and Its dietary sponge from the South China Sea” (J Nat Prod, 2004).

The data set concerns Gambusia affinis. The data set is described as follows: Ichthyotoxicity against Gambusia affinis at 10 ppm. The note with it: in vivo. It counts as organism-based.

For the compound `CC(=O)O[C@@H]1OCC2=CC[C@H]3[C@]4(C)CC[C@H]5C(C)(C)CCC[C@]5(C)[C@H]4CC(=O)[C@]3(C)[C@H]21`, the Activity entry is given as “Toxic”.
`CC1(C)CCC[C@]2(C)[C@H]3CC(=O)[C@]4(C)[C@@H]5C(=CC[C@H]4[C@]3(C)CC[C@@H]12)CO[C@H]5O`: the Activity entry is recorded as “Toxic”.
With `CC(=O)O[C@H]1C[C@@H]2[C@@]3(C)CCCC(C)(C)[C@@H]3CC[C@@]2(C)[C@@H]2CC=C3CO[C@@H](O)[C@@H]3[C@@]12C` the entry was “Toxic”; with `CC1(C)CCC[C@]2(C)[C@H]3CC(=O)[C@]4(C)[C@@H](C=O)C(C=O)=CC[C@H]4[C@]3(C)CC[C@@H]12`, “Toxic”.
With `CC(=O)O[C@H]1C[C@@H]2[C@@]3(C)CCCC(C)(C)[C@@H]3CC[C@@]2(C)[C@@H]2CC=C(C=O)[C@H](C=O)[C@@]12C` [SCALARADIAL] the entry was “Toxic”.
With `CC1(C)CCC[C@]2(C)[C@H]3C[C@H](O)[C@]4(C)[C@@H](C=O)C(C=O)=CC[C@H]4[C@]3(C)CC[C@@H]12` the entry was “Toxic”; with `CC(=O)O[C@@H]1OCC2=CC[C@H]3[C@]4(C)CC[C@H]5C(C)(C)CCC[C@]5(C)[C@H]4C[C@H](OC(C)=O)[C@]3(C)[C@H]21` [DEOXOSCALARIN ACETATE], “Not Active”.
